Data: paper PMC12635197, “Discovery of first-in-class inhibitors of the TRF1:TIN2 protein:protein interaction by fragment screening” (Scientific Reports, 2025)
“Also recorded” adds a separate entry of the source.

What was measured:
TRF1TRFH = molecular target: T1, TRF1TRFH (Homo sapiens, UniProt P54274); test: LO-NMR R2KD assay; format: binding; settings: global KD shared across 1H NMR peaks, single experiment, 95% CI in parentheses; 2 µM TRF1TRFH
T1 construct: encoding residues 47–268, UniProt identifier P54274-1; His6-MBP (TEV-cleavable) (N, cleaved yes); made in house; host or cells: E. coli BL21-CodonPlus(DE3)-RIL
T1 sequence (P54274 47-268): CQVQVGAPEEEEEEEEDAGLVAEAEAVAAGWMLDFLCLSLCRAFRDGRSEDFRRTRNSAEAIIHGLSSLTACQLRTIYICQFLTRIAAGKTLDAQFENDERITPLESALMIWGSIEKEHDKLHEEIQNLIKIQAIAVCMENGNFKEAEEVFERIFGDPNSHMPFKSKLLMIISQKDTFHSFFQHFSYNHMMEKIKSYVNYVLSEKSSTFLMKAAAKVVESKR
Description: Recent work by Liu and colleagues introduced a novel LO-NMR method that can be used to quantitatively determine the dissociation constant (KD) of a ligand for a protein from measured R2 values of ligand nuclei at a range of ligand concentrations.
The R2KD assay was carried out as described by Liu et al.[40]. A Bruker SamplePro liquid handler was used to prepare 10 samples: 8 samples containing an increasing ligand concentration from 50 to 500 µM whilst maintaining a constant TRF1TRFH concentration (2 µM final); and two samples containing ligand only at 200 µM and 400 µM. All ten samples were prepared from stock solutions of ligand, DMSO, protein and buffer alone using the Bruker SamplePro liquid handler prior to transfer to 3-mm NMR tubes.
NMR data were collected at 298 K on a Bruker Avance Neo 600-MHz spectrometer using the Bruker Topspin 4.0 software. T2 relaxation experiments were performed using the standard Bruker CPMG pulse program with Excitation Sculpting incorporated to suppress water signal. The spin-echo period (delay-180°-delay) was set to 1 ms (d20 = 500 µs), and the relaxation delay (d1) was set to 10 s. The sudo-2D experiment contained nine slices with the spin echo period repeated at the following times: 4, 20, 100, 200, 300, 500, 700, 1000, and 2000 ms. T2 relaxation data were processed using the MestReNova 14.1 data analysis module to obtain integrals of individual[1]H-NMR signals, which were used to calculate R2 with the equation I = I0e^(−tR2). GraphPad Prism 9.0.0 was used to fit R2 values of individual compound peaks to obtain an overall (shared) KD value from all peaks of the compound.

shelterin complex = molecular target: T2, shelterin complex (Homo sapiens, UniProt P54274); test: Mass photometry assay of TRF1 eviction from shelterin; format: biochemical
T2 construct: evicted full-length TRF1 from the shelterin complex; made in house; host or cells: Spodoptera frugiperda (Sf9) insect cells, MultiBac baculovirus
T2 sequence (P54274 1-439): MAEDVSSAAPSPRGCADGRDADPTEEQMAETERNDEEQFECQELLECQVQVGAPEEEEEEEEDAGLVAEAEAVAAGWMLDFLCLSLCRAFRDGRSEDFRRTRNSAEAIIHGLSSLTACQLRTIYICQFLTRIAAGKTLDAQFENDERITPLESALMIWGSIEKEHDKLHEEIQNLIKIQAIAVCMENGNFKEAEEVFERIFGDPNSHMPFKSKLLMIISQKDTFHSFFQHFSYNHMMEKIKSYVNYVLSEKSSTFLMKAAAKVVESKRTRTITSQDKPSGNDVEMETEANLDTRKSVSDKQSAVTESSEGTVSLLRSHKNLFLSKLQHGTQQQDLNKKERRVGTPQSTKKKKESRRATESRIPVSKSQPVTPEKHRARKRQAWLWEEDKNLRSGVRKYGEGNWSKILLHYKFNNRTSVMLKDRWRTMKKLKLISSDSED
Text: We developed a mass-photometry based assay to evaluate the ability of compound 40 to disrupt the TRF1TRFH:TIN2TBM interaction and subsequently evict TRF1 from the full shelterin complex. We expressed recombinant shelterin in insect cells (see Materials and Methods) and purified it via affinity and size exclusion chromatography (SEC). Given the compositional heterogeneity of shelterin, also observed by Zinder et al. 2022[42], we enriched a complex of approximately 700 kDa by serial SEC. The resulting complex was incubated with increasing concentrations of compound 40, and the resulting mass distribution was analysed by mass photometry. Due to disassembly of the complex upon dilution to nanomolar concentrations required for mass photometry, we stabilised it by limited crosslinking using glutaraldehyde prior to dilution to assess potential TRF1 dissociation (Supplementary Fig. 6). With increasing concentrations of compound 40, we observed an increase in a peak around 100 kDa, corresponding in size to the full-length TRF1 dimer (Fig. 6a; Supplementary Fig. 7a, b), consistent with eviction of TRF1 from shelterin. […] Additionally, the mass photometry peak of shelterin shifted and reduced in size by approximately 100 kDa upon the addition of > 250 µM of compound 40, indicating the removal of TRF1 from the complex (Fig. 6a). To confirm whether the evicted entity corresponds to TRF1, we analysed the full shelterin complex by SDS-PAGE, upon co-incubation with increasing amounts of compound 40 or control compound 60 and subsequent mild crosslinking, analogous to the mass photometry experiment. […] To confirm its identity, we performed Western blotting, probing for TRF1, TRF2 and TIN2. This analysis confirmed that the released protein is TRF1 (Fig. 6c, f).
Mass Photometry (MP) experiments were performed using a Refeyn OneMP instrument. […] Data were processed and analysed using Refeyn DiscoverMP software (v2024 R2). Gaussian fits for the mass distribution histograms, mass measurements and percentage abundances (of peak counts to total counts) were determined for each peak observed.

Kd (TRF1TRFH): 29 µM | concentration at which TRF1 eviction reaches a plateau (shelterin complex; 1.25 µM shelterin, 100-300 µM compound, 1 h, glutaraldehyde crosslinking, n = 1): 250 µM | reduction in size of shelterin mass photometry peak (shelterin complex; upon addition of > 250 µM compound): around 100 kDa
Compound: COc1cc(COc2ccc(S(=O)(=O)[O-])c3ccccc23)cc(OC)c1.[Na+] [Compound 40]
eviction of TRF1 from shelterin (100-kDa TRF1 peak) (shelterin complex; compound 40 at 100-300 µM, compound 60 at 300 µM): expels TRF1 from purified shelterin; also recorded: concentration-dependent increase in eviction of TRF1
